Tests used:
[1] = FACE, GBP binding to heparin and desulfated heparins; conditions: LMWH and desulfated heparins; FIG. 1B
Protocol: (§1) Fluorophore-assisted carbohydrate electrophoresis (FACE) is carried out by pre-mixing (A) AMAC-labeled LMWH, chondroitin sulfate (CS), and dermatan sulfate (DS) and (B) AMAC-labeled LMWH, de-2-O-sulfated heparin, de-6-O-sulfated heparin, and N-acetyl-de-O-sulfated heparin (0.33 nmol) with indicated fold molar excess of GBP before incubated with or without peptide in PBS at 25° C. for 15 min. The reaction products are separated on a 1% agarose gel. The reacted probe and protein are shown above the gel. Relative intensity (%) of free probe and the unlabeled competitors are shown at the bottom of the gel.
(§2) Carbohydrate were labeled with 2-aminoacridone (AMAC) (Invitrogen, catalog no. A6289) according to previous study (Calabro, A., Benavides, M., Tammi, M., Hascall, V. C., and Midura, R. J. (2000) Microanalysis of enzyme digests of hyaluronan and chondroitin/dermatan sulfate by fluorophore-assisted carbohydrate electrophoresis (FACE), Glycobiology 10, 273-281). Briefly, fifty micrograms GAGs were dried by freeze-drying machine, and then incubated with 40 μl 1.25 M 2-aminoacridone (AMAC)/85% DMSO/15% acetic acid at 25° C. for 15 min. Forty microliters of 1.25 M sodium cyanoborohydride (NaBH3CN) was added and incubated at 37° C. for 16 h. Afterwards, 720 μl 99% ice-cold ethanol was added at −20° C. for 15 min, then centrifugation at 11,000×g at 4° C. for 5 min. […]

[2] = Fluorophore-assisted carbohydrate electrophoresis (FACE), GBP binding to glycosaminoglycans; conditions: LMWH, CS, DS; PBS, 25° C., 15 min; FIG. 1A
Protocol: as §1, §2

neoplastic lung tissues = experiment: IHC targeting of GBP in lung cancer tissue arrays, overall; format: binding, human
Protocol: The 5 μm slides were dried in the oven at 60° C. for 1 h. Briefly, the sections were deparaffinized with xylene (J. T. Baker Phillipsburg, N) for 15 min and rehydrated in graded ethanol solutions. Endogenous peroxidase activity was blocked by incubating the sections in a 3% hydrogen peroxide solution in distilled water for 10 min. The sections were then washed and placed in phosphate buffer for 10 min. Antigen retrieval was achieved by heat treatment using 10 mM citrate buffer solution pH 6.0 or by 0.1% trypsin treatment for 5 min (for 10E4). After the slides were blocked in 3% BSA solution for 1 h and incubated with 2 μM eGFP-GBP fusion protein for 2 h (for eGFP), these sections were then incubated with 10E4 antibody (1:200 dilution) and eGFP antibody (1:200 dilution) at 4° C. overnight, individually. […]
Every tumor was given a score according to the intensity of the nuclear or cytoplasmic staining (no staining=0; weak staining=1; moderate staining=2; strong staining=3) and the extent of stained cells (0-10%=0; 11-50%=1; 51-80%=2; 81-100%=3). The final immunoreactive score was determined by multiplying the intensity and extent of positivity scores of stained cells, with the minimum score of 0 and a maximum score of 9.
Specimen scores from 61 cases of lung cancers from tissue arrays were used for quantitative evaluation of IHC data. […]

NYRWRCKNQN [GBP]
GBP recognition of sulfated HS / heparin derivatives (FACE) [1]: identified sulfated HS, especially preferring O-sulfated heparin
GBP binding to glycosaminoglycans (FACE) [2]: probed universal glycosaminoglycans including low molecular weight heparin, chondroitin sulfate and dermatan sulfate
GBP recognition, aggressive versus early stage of cancer (neoplastic lung tissues): higher recognition toward more aggressive tumor progression
